In patent publication US7906488B2, “Sphingolipids in treatment and prevention of steatosis and of steatosis or of hepatotoxicity and its sequelae” (Nederlandse Organisatie Voor …, priority 2004, dated 2011):

Tests used:
[1] = test system: APOE*3Leiden mice; test: Effect of dietary sphingolipids on plasma C and TG levels (0.1, 0.2, 0.4% in diet); type: in vivo; conditions: 0.4% sphingolipid in diet, compared with 0.2%
From the text: Sphingolipids: The three sphingolipids that represent the most abundant natural complex sphingolipid classes and the three of the simplest natural sphingolipids, the sphingoid bases that can be formed by enzymatic breakdown of complex sphingolipids in the intestine were used. Sphingomyelin (mainly N-palmitoyl-sphingosine-1-phosphocholine) from egg was obtained from Larodan Fine Chemicals (Stockholm, Sweden). Yeast-derived (semi)synthetic ceramide III (N-stearoyl-phytosphingosine), cerebroside (N-stearoyl-phytosphingosine-1-glucose) and phytosphingosine (PS) were from Cosmoferm BV (Delft, the Netherlands). Sphinganine and sphingosine were from Avanti Polar Lipids (Albaster, Ala.). Animals and diets: Heterozygous female APOE*3Leiden transgenic mice (Van Vlijmen et al. 1994. J. Clin. Invest 93:1403-1410.) (6 months old) were fed a Western-type diet (Hope Farms, Woerden, the Netherlands) containing 15% cocoa butter, 0.25% cholesterol, 1% corn oil, 40.5% sucrose, 20% acid casein, 10% corn starch and 5.95% cellulose (all w/w) for 5 weeks. The mice were allowed free access to food and water. Body weight and food intake were monitored weekly. In the first experiment (FIG. 2), the mice were randomized after these 5 weeks into 7 groups (n=6), based on plasma cholesterol, triglycerides, and body weight. Subsequently, the mice were fed for three weeks the same diet without or with 0.1% (w/w) phytosphingosine (PS), sphingosine, sphinganine, cerebroside, ceramide III, or sphingomyelin. […]
Plasma parameters: Tail blood samples were collected in EDTA-coated cups, or in paraoxon-coated capillaries to prevent lipolysis as described in Zambon et al. 1993 (Zambon et al. 1993. J. Lipid Res. 34:1021-1028). Plasma lipid parameters were determined using commercial kits for total cholesterol (C) Chol R1 from Roche Diagnostics, Mannheim, Germany), non-esterified free fatty acids (FFA) (NEFA-C; Wako chemicals, Neuss, Germany), Total triglycerides (TG) (Triglyceride GPO-Trinder; Sigma, St. Louis, Mo.), β-hydroxybutyrate (β-HB; Sigma) and ALAT (Reflotron GPT; Roche). Serum amyloid A (SAA) was measured by ELISA (Biosource, Nivelles, Belgium) and fibrinogen by sandwich ELISA, as described in Koopman et al., 2005 (Koopman et al. 2005. Fibrinol Proteol 11:19). […] Hepatic VLDL-TG production: The rate of hepatic VLDL-TG production, de novo apoB secretion, and VLDL composition were determined in overnight-fasted mice. […] After 30 min, the animals received a Triton WR1339 injection (Tyloxapol, Sigma; 500 mg/kg body weight in 100 μl saline) to prevent systemic lipolysis of newly-secreted hepatic VLDL-TG (Aalto-Setala et al. 1992. J. Clin. Invest 90:1889-1900.27) Blood samples were drawn at 0, 15, 30, 60, and 90 min after Triton WR1339 injection and plasma TG concentrations were determined. […]

[2] = test system: APOE*3Leiden mice; test: Liver lipid levels, liver appearance and liver histology; type: in vivo; conditions: 1% PS diet; for Fat deposits / lipid-filled vacuoles in liver cells (HPS-stained sections): compared to controls

SMILES: CCCCCCCCCCCCCC[C@@H](O)[C@@H](O)[C@@H](N)CO [PS, phytosphingosine]
- Plasma C [1]: decreased even more
- Liver cholesteryl ester, % Δ vs control ([2]; 5 weeks): −61%
- Liver free cholesterol, % Δ vs control ([2]; 5 weeks): −11%
- Liver triglycerides, % Δ vs control ([2]; 5 weeks): −56%
- Liver cholesteryl ester ([2]; 5 weeks, 4 h-fasted): 5.20 ± 0.79 μg/mg protein
- Liver free cholesterol ([2]; 5 weeks, 4 h-fasted): 6.95 ± 0.78 μg/mg protein
- Liver triglycerides ([2]; 5 weeks, 4 h-fasted): 15.28 ± 3.84 μg/mg protein
- Fat deposits / lipid-filled vacuoles in liver cells (HPS-stained sections) [2]: less lipid-filled vacuoles
- Fat deposits / lipid-filled vacuoles in liver cells (HPS-stained sections) ([2]; listed as phytosphingosine): absence of such fat deposits
- Liver appearance at autopsy ([2]; control livers enlarged and yellowish): of normal size, and had a dark-red appearance
- Decrease of liver Free C vs control ([2]; p<0.05): 11%
- Decrease of liver cholesteryl esters vs control ([2]; p<0.05): 61%
